≈ marks a conversion by molar mass, not a printed value. Where “and” joins values, the source holds several entries; their conditions need not be identical. Equal values may be shown once.
Experiments:
[1] = system: post-surgical pain in rats; type: in vivo; settings: IT chloroprocaine 3% 20 μL, after 4 hours
[2] = system: post-surgical pain in rats; type: in vivo; settings: 4 hours after the incision, IT acetaminophen 200 μg, chloroprocaine 3% 20 μL; for pain threshold following mechanical stimulation: individual animals
Protocol: The efficacy of the acetaminophen supersaturated solution administered by spinal administration (IT) was tested with explorative experiments in a model of post-surgical pain in rats in combination with a solution of chloroprocaine 3%.
The post-surgical pain was induced by means of incision and subsequent suture of the subplantar region of the rear left paw, as described by Timothy J. Brennan (1996).
The pain threshold following mechanical stimulation (expressed in grams) was measured 4 hours after the incision. Complete reduction of the anaesthetic effect of the spinal chloroprocaine is expected within this period of time. The reduction of the pain threshold is considered to be an indicator of pain and hyperalgesia of the zone affected by surgical intervention.

[3] = Solubility of acetaminophen at 20° C.; type: physicochemical; settings: water
[4] = system: oedema at the site of inflammation induced by carrageenan; test: Development of oedema (paw volume), carrageenan model; type: in vivo, mice; settings: for Paw volume (oedema): mice, individual animals
Protocol: The efficacy of the acetaminophen supersaturated solution administered by spinal administration (IT) was tested by means of explorative experiments in a model of inflammatory pain in mice, induced by means of intraplantar injection (injection in the rear left paw, referred to hereinafter as the “site of inflammation”) of carrageenan (50 μl 1%).
The development of oedema at the site of inflammation was measured and expressed as an increase of volume (mL) of the site of inflammation.
Spinal administration in the mouse was carried out as described by Fairbanks (2003).

CCN(CC)CCOC(=O)c1ccc(N)cc1Cl [Chloroprocaine, chloroprocaine]
recovery of walking and tension of the rear limbs [1]: complete recovery in terms of walking and tension of the rear limbs
effect on pain threshold / post-surgical pain [2]: did not change the pain threshold
pain threshold following mechanical stimulation [2]: 23.60 grams and 22.75 grams and 19.75 grams and 24.25 grams

CC(=O)Nc1ccc(O)cc1 [Acetaminophen, acetyl-p-aminophenol]
solubility [3]: ~13 mg/mL (≈ 86 mM)
Paw volume (oedema) ([4]; 10 μg IT, 2 hours after carrageenan): 0.43 mL and 0.36 mL (2×) and 0.38 mL and 0.37 mL (2×) and 0.44 mL
Paw volume (oedema) ([4]; 10 μg IT, 4 hours after carrageenan): 0.39 mL and 0.36 mL and 0.34 mL and 0.38 mL and 0.44 mL (2×) and 0.41 mL
Paw volume (oedema) ([4]; 10 μg IT, 6 hours after carrageenan): 0.44 mL and 0.38 mL and 0.33 mL (2×) and 0.37 mL and 0.45 mL and 0.36 mL
Paw volume (oedema) ([4]; 10 μg IT, 24 hours after carrageenan): 0.47 mL and 0.4 mL and 0.46 mL and 0.37 mL and 0.5 mL and 0.42 mL (2×)
Paw volume (oedema) ([4]; 10 μg IT, basal): 0.29 mL (2×) and 0.24 mL and 0.2 mL and 0.21 mL and 0.26 mL and 0.22 mL
Paw volume (oedema) ([4]; 100 μg IT, 2 hours after carrageenan): 0.32 mL and 0.34 mL and 0.33 mL (3×) and 0.37 mL and 0.36 mL
Paw volume (oedema) ([4]; 100 μg IT, 4 hours after carrageenan): 0.35 mL (2×) and 0.37 mL and 0.38 mL (2×) and 0.36 mL and 0.34 mL
Paw volume (oedema) ([4]; 100 μg IT, 6 hours after carrageenan): 0.38 mL (2×) and 0.4 mL (2×) and 0.39 mL and 0.43 mL and 0.35 mL
Paw volume (oedema) ([4]; 100 μg IT, 24 hours after carrageenan): 0.33 mL and 0.41 mL and 0.42 mL and 0.44 mL and 0.47 mL and 0.45 mL and 0.46 mL
Paw volume (oedema) ([4]; 100 μg IT, basal): 0.27 mL and 0.28 mL and 0.29 mL and 0.24 mL and 0.26 mL and 0.25 mL and 0.18 mL
reduction of the development of oedema at the site of inflammation ([4]; 100 μg per mouse IT, first two hours following induction): approximately 20%
pain threshold following mechanical stimulation [2]: 22.75 grams and 24.90 grams and 24.00 grams and 28.00 grams and 38.75 grams
